Experimental data: patent US20260183295A1, “METHODS AND COMPOSITIONS FOR TREATING CANCER” (Onconova Therapeutics, Inc., priority 2022, published 2026)

Assays:
Caspase 3/7 [1] = assay: Caspase 3/7 Glo assay with or without bafilomycin A1, MDA-MB-231 cells, 2 days; type: cell-based; conditions: 5 μM
Source text: FIGS. 34 and 35 show Caspase 3/7 activity as measured by the Caspase 3/7 Glo assay. […] The effect was enhanced by co-treatment with bafilomycin A1 cotreatment.

NUAK1 = target: T1, NUAK1 (Homo sapiens, UniProt O60285); assay: NUAK1 CETSA; type: cell-based; set-up: endogenous in cells; host or cells: MDA-MB-231 (lysates and intact cells)
T1 sequence (O60285 1-661): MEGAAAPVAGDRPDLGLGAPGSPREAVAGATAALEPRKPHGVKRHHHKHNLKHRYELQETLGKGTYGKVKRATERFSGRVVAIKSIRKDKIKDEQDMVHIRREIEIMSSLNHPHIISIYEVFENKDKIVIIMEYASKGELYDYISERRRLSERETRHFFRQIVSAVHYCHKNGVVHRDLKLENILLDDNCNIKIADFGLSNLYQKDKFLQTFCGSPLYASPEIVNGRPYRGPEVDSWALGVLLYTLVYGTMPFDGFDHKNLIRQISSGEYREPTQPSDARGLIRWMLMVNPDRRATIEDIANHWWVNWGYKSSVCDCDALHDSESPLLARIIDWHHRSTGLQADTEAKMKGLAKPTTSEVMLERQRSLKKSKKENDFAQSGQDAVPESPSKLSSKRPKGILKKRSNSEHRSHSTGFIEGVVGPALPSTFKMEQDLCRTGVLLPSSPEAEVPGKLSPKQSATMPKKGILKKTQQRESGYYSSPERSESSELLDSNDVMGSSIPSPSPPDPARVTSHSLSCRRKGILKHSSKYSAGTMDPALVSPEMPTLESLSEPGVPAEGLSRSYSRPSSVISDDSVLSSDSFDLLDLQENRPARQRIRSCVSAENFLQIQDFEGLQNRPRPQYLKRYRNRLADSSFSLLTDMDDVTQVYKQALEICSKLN
Method: (§1) Following treatment, cell lysates were thermally treated in a thermal gradient profile across a temperature range. Following the thermal shift, cell lysates were spun by centrifuge to pellet aggregate protein and the supernatant withdrawn. The supernatant was then denatured in buffer and heated to denature, reduce, and alkylate the supernatant proteins. Following heating and cooling to room temperature, cold acetone was added to the supernatant samples and proteins precipitated.
TNBC MDA-MB-231 cells were grown at 37° C. in 5% CO2 and suspended in warm media and split into 4 equal volumes. […] Cells were incubated and then pelleted. Following pelleting, the cells were washed, resuspended, and heated in a thermal gradient. Following heating, the samples were flash frozen and lysed in lysis buffer, agitated by vortex, and sonicated prior to centrifugation. The supernatant was collected and denaturation buffer added. Cold acetone was then added to the cell samples, and protein collected by centrifugation. […]
(§2) The intact cell protein samples and lysate protein samples were then digested and labeled for mass spectrometry analysis according to the manufacturer's recommended protocols. Digested and labeled protein samples were analyzed by mass spectrometry proteomic analysis and the resulting protein targets were analyzed and plotted.

MDA-MB-231 cells [2] = assay: CytoTox-Glo cytotoxicity assay with or without bafilomycin A1, 2 days; type: cell-based; conditions: 5 μM
PyMT cells = assay: Senescence-associated β-galactosidase staining, 48 hours; type: cell-based, mouse; conditions: compared to DMSO
Method: Following 48 hours of treatment, cells were stained for the senescence marker β-galactosidase.

MDA-MB-231 cells [3] = assay: Lysotracker Green staining, phase contrast microscopy; type: cell-based; conditions: 5 μM, 2 hours
Method: MDA-MB-231 cells were treated with Compound 1 (5 μM) for 2 hours and stained with Lysotracker Green and imaged using phase contrast microscopy to examine the effect of Compound 1 treatment on vacuolization.

CCL5 = assay: qPCR of T-cell recruiting chemokine mRNA, PyMT cells; type: cell-based, mouse
Caspase 3/7 [4] = assay: Caspase 3/7 Glo assay, MDA-MB-231 cells, 24 hours; type: cell-based
Method: To determine how Compound 1 induces cell death, Caspase 3/7 activity was measured using the Caspase 3/7 Glo assay.
The effect of zVAD-FMK treatment on Caspase 3/7 activity was assessed.

AAK1 = target: T2, AAK1 (Homo sapiens, UniProt Q2M2I8); assay: CETSA-MS, MDA-MB-231 cell lysates and intact cells; type: cell-based; conditions: present in both MDA-MB-231 cell lysates and intact cells
T2 construct: endogenous in cells; host or cells: MDA-MB-231
Method: as §1
(§3) TNBC MDA-MB-231 cells were grown at 37° C. in 5% CO2 and suspended in warm media and split into 4 equal volumes. […] Cells were incubated and then pelleted. Following pelleting, the cells were washed, resuspended, and heated in a thermal gradient. Following heating, the samples were flash frozen and lysed in lysis buffer, agitated by vortex, and sonicated prior to centrifugation. The supernatant was collected and denaturation buffer added. Cold acetone was then added to the cell samples, and protein collected by centrifugation. Pellets were then washed twice with cold acetone and the washed pellets prior to labeling.
as §2

BMP2K = target: T3, BMP2K (Homo sapiens, UniProt Q9NSY1); assay: CETSA-MS, MDA-MB-231 cell lysates and intact cells; type: cell-based; conditions: present in both MDA-MB-231 cell lysates and intact cells
T3 construct: endogenous in cells; host or cells: MDA-MB-231
Method: as §1, §3, §2

GSK3A = target: T4, GSK3A (Homo sapiens, UniProt P49840); assay: CETSA-MS, MDA-MB-231 cell lysates and intact cells; type: cell-based; conditions: present in both MDA-MB-231 cell lysates and intact cells
T4 construct: endogenous in cells; host or cells: MDA-MB-231
Method: as §1, §3, §2

GSK3B = target: T5, GSK3B (Homo sapiens, UniProt P49841); assay: CETSA-MS, MDA-MB-231 cell lysates and intact cells; type: cell-based; conditions: present in both MDA-MB-231 cell lysates and intact cells
T5 construct: endogenous in cells; host or cells: MDA-MB-231
Method: as §1, §3, §2

CHEK1 = target: T6, CHEK1 (Homo sapiens, UniProt O14757); assay: CETSA-MS, MDA-MB-231 cell lysates and intact cells; type: cell-based; conditions: present in both MDA-MB-231 cell lysates and intact cells
T6 construct: endogenous in cells; host or cells: MDA-MB-231
T6 sequence (O14757 1-476): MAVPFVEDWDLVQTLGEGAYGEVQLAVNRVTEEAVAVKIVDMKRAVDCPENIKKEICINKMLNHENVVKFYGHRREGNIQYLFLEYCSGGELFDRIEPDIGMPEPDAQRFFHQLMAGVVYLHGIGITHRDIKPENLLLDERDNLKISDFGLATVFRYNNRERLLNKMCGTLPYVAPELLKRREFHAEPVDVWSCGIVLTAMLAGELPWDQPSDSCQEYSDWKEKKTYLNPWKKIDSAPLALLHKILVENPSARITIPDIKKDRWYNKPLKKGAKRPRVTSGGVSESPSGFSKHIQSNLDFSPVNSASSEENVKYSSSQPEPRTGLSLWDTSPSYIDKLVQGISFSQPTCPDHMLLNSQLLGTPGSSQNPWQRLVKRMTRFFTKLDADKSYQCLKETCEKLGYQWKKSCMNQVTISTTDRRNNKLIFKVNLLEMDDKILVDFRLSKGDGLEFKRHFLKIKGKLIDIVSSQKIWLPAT
Method: as §1, §3, §2

T2 sequence (Q2M2I8 whole entry): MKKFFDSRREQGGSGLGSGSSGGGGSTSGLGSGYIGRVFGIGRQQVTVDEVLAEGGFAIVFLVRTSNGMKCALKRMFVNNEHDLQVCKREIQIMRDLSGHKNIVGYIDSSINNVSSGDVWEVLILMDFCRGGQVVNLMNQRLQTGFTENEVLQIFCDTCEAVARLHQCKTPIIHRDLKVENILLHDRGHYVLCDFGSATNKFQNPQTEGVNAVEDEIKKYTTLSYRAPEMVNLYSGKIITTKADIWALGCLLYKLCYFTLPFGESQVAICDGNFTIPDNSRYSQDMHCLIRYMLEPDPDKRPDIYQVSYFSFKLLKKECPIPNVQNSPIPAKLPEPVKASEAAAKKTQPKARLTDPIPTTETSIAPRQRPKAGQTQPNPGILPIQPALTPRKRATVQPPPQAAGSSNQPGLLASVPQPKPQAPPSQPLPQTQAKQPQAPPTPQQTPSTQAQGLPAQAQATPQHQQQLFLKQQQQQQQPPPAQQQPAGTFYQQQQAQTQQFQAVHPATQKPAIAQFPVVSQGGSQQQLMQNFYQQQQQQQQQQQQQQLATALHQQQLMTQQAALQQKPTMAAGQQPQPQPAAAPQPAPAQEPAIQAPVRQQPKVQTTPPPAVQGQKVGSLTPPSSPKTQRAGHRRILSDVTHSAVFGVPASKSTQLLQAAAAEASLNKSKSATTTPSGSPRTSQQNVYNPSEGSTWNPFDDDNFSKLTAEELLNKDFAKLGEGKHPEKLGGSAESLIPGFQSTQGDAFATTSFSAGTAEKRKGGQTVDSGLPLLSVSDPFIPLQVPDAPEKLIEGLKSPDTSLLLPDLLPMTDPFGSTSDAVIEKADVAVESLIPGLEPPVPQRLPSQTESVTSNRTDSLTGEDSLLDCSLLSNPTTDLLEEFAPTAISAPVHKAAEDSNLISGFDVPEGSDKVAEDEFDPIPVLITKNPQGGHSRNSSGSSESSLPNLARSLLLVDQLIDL
T5 sequence (P49841 whole entry): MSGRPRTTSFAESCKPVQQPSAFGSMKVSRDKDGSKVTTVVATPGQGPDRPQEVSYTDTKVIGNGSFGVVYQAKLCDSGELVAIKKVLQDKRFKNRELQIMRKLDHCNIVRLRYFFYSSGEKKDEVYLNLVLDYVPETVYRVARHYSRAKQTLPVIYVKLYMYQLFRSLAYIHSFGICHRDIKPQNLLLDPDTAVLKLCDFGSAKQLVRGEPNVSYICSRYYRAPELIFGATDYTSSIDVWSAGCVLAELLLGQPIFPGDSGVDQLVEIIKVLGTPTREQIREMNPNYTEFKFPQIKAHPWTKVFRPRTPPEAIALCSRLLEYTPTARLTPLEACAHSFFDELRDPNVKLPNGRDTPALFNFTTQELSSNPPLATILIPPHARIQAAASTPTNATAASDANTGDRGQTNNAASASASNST
T3 sequence (Q9NSY1 whole entry): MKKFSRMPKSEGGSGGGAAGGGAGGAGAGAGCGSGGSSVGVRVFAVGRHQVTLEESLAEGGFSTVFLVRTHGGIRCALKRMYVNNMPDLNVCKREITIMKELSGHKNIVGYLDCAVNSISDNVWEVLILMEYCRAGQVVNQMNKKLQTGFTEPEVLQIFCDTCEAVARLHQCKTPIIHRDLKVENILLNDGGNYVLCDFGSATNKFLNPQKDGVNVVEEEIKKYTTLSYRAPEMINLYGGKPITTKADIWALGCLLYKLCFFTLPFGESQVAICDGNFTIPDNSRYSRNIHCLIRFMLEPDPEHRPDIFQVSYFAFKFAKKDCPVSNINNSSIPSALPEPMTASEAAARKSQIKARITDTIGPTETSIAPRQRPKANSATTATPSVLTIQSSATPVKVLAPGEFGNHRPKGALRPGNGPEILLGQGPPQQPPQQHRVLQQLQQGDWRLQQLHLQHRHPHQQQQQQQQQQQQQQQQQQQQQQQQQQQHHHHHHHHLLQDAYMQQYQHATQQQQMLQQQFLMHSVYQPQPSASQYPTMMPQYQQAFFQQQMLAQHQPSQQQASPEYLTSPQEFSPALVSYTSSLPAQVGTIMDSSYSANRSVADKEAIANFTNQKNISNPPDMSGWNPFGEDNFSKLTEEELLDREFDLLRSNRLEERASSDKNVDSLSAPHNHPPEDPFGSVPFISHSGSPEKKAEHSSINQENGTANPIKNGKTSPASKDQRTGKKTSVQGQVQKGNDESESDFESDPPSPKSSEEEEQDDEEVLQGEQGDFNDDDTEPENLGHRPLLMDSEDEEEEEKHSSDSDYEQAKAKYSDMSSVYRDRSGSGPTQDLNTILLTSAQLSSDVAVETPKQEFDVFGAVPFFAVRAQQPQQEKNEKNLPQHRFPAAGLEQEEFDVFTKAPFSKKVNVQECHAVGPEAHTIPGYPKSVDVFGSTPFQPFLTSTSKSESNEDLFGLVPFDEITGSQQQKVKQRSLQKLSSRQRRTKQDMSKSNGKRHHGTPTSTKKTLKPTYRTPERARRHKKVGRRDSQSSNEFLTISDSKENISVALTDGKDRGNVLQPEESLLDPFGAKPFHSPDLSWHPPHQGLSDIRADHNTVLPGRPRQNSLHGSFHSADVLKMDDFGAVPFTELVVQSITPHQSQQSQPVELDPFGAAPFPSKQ
T4 sequence (P49840 whole entry): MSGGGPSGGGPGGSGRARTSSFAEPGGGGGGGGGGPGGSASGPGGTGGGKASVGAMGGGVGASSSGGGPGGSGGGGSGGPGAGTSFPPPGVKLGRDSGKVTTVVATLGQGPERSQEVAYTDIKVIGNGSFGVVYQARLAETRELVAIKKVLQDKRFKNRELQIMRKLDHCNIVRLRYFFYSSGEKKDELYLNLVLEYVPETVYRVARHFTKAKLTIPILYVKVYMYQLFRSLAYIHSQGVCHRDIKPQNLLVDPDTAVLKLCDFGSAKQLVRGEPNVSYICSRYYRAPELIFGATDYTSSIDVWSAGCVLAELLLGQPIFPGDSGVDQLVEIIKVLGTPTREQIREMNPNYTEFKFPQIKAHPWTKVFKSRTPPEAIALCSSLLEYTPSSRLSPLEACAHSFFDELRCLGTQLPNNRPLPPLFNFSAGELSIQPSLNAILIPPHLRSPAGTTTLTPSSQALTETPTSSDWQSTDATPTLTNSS

CN1CCN(c2ccc(Nc3ncc4cc(C#N)c(=O)n(C5CCCC5)c4n3)cc2)CC1 [Compound 1, 8-cyclopentyl-2-((4-(4-methylpiperazin-1-yl)phenyl)amino)-7-oxo-7,8-dihydropyrido[2,3-d]pyrimidine-6-carbonitrile]
Caspase 3/7 activity, compound alone (Caspase 3/7 [1]): increased Caspase 3/7 activity
effect of bafilomycin A1 cotreatment on Caspase 3/7 activity (Caspase 3/7 [1]): enhanced
CETSA (NUAK1): NEG
cell death (Cell Tox Glo), compound alone (MDA-MB-231 cells [2]): induced cell death
effect of bafilomycin A1 cotreatment on cell death (Cell Tox Glo) (MDA-MB-231 cells [2]): enhanced
β-galactosidase staining (senescence) (PyMT cells): increased β-galactosidase staining
vacuolization, Lysotracker Green staining (MDA-MB-231 cells [3]): extensive cytoplasmic vacuolization that colocalized with Lysotracker green staining
time of peak CCL5 mRNA levels (CCL5): ~48 h
CCL5 mRNA levels (CCL5; 24, 48 and 72 hours): large increase
Caspase 3/7 activity (Caspase 3/7 [4]; Compound 1, Comparator 1, 2 5 μM, Comparator 4 10 μM (FIG. 22)): modest increase
Caspase 3/7 activity (Caspase 3/7 [4]; without zVAD-FMK, relative to DMSO (FIG. 26)): small increase
effect of zVAD-FMK on induced Caspase 3/7 activity (Caspase 3/7 [4]; zVAD-FMK 20 μM (FIG. 26)): inhibited by zVAD-FMK treatment
Group (CETSA-MS thermal shift) (AAK1): Stabilization
Group (CETSA-MS thermal shift) (BMP2K): Stabilization
Group (CETSA-MS thermal shift) (GSK3A): Stabilization
Group (CETSA-MS thermal shift) (GSK3B): Stabilization
Group (CETSA-MS thermal shift) (CHEK1): Destabilization
